29 compounds from patent publication US9284333B2, “Fused pyrroledicarboxamides and their use as pharmaceuticals” (SANOFI, priority 2012, dated 2016) can be followed below.

Molecules are shown by their SMILES.

This assay concerns the target Human TASK-1 channels (Homo sapiens (Human), UniProt O14649). In words: Determination of the activity on the TASK-1 channel in Xenopus oocytes (two-microelectrode voltage clamp). It counts as cell-based. The settings on record: for IC50: human TASK-1 expressed in Xenopus oocytes, room temperature, read-out: IC50 value for TASK-1 inhibition. Put shortly:
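Current during 500 ms pulses to 40 mV from a −90 mV hold was recorded in oocytes expressing human TASK-1 for two days after cRNA injection. Compounds were added cumulatively to the ND96 bath (pH 7.4, room temperature). IC50 came from dose-response fitting of inhibition relative to pre-compound current.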

Chain of Human TASK-1 channels (O14649 whole entry): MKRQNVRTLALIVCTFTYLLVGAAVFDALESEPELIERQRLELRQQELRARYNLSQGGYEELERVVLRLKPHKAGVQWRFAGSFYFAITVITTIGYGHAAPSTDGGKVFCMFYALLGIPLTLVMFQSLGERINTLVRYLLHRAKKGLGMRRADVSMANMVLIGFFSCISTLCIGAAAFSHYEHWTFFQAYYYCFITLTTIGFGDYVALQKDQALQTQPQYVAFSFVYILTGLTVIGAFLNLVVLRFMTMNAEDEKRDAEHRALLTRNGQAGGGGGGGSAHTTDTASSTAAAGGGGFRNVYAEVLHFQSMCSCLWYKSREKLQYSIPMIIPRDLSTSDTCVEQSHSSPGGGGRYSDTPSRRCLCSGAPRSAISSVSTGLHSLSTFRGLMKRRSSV

As to `CC[C@@H](NC(=O)c1cc(C(=O)N2CCC[C@@H]2COC)n2c1COCC2)c1ccccc1` [16eo, 6-((R)-2-Methoxymethyl-pyrrolidine-1-carbonyl)-3,4-dihydro-1H-pyrrolo[2,1-c][1,4]oxazine-8-carboxylic acid ((R)-1-phenyl-propyl)-amide], the IC50 is 380 nM.
Same read-out and setting: with `CC[C@@H](NC(=O)c1cc(C(=O)N2[C@@H](COC)CC[C@@H]2COC)n2c1COCC2)c1ccccc1` [16ep, 6-((2R,5R)-2,5-Bis-methoxymethyl-pyrrolidine-1-carbonyl)-3,4-dihydro-1H-pyrrolo[2,1-c][1,4]oxazine-8-carboxylic acid ((R)-1-phenyl-propyl)-amide] the figure was 820 nM; with `CC[C@@H](NC(=O)c1cc(C(=O)N2CCCC2c2cc(C)no2)n2c1COCC2)c1ccccc1` (stereo partly drawn) [16eq, 6-[2-(3-Methyl-isoxazol-5-yl)-pyrrolidine-1-carbonyl]-3,4-dihydro-1H-pyrrolo[2,1-c][1,4]oxazine-8-carboxylic acid ((R)-1-phenyl-propyl)-amide], 480 nM; with `CC[C@@H](NC(=O)c1cc(C(=O)N2CCCC2c2c(C)noc2C)n2c1COCC2)c1ccccc1` (stereo partly drawn) [16er, 6-[2-(3,5-Dimethyl-isoxazol-4-yl)-pyrrolidine-1-carbonyl]-3,4-dihydro-1H-pyrrolo[2,1-c][1,4]oxazine-8-carboxylic acid ((R)-1-phenyl-propyl)-amide], 320 nM.
On the same count and under the same terms, with `CCO[C@H]1CCN(C(=O)c2cc(C(=O)N[C@H](CC)c3ccccc3)c3n2CCOC3)C1` [16es, 6-((S)-3-Ethoxy-pyrrolidine-1-carbonyl)-3,4-dihydro-1H-pyrrolo[2,1-c][1,4]oxazine-8-carboxylic acid ((R)-1-phenyl-propyl)-amide] the figure was 1800 nM; with `CC[C@@H](NC(=O)c1cc(C(=O)N2CCC[C@@H]2C(O)C2CC2)n2c1COCC2)c1ccccc1` (stereo partly drawn) [16et, 6-[(R)-2-(Cyclopropyl-hydroxy-methyl)-pyrrolidine-1-carbonyl]-3,4-dihydro-1H-pyrrolo[2,1-c][1,4]oxazine-8-carboxylic acid ((R)-1-phenyl-propyl)-amide], 1300 nM.
The same measure, in the same setting: with `CC[C@@H](NC(=O)c1cc(C(=O)N2CCC[C@@H]2C(F)(F)F)n2c1COCC2)c1ccccc1` [16eu, 6-((R)-2-Trifluoromethyl-pyrrolidine-1-carbonyl)-3,4-dihydro-1H-pyrrolo[2,1-c][1,4]oxazine-8-carboxylic acid ((R)-1-phenyl-propyl)-amide] the figure was 49 nM; with `CC[C@@H](NC(=O)c1cc(C(=O)N2CC[C@H](OCC3CC3)C2)n2c1COCC2)c1ccccc1` [16ev, 6-((S)-3-Cyclopropylmethoxy-pyrrolidine-1-carbonyl)-3,4-dihydro-1H-pyrrolo[2,1-c][1,4]oxazine-8-carboxylic acid ((R)-1-phenyl-propyl)-amide], 330 nM; with `CC[C@@H](NC(=O)c1cc(C(=O)N2CCCC2C(C)(C)O)n2c1COCC2)c1ccccc1` (stereo partly drawn) [16ew, 6-[2-(1-Hydroxy-1-methyl-ethyl)-pyrrolidine-1-carbonyl]-3,4-dihydro-1H-pyrrolo[2,1-c][1,4]oxazine-8-carboxylic acid ((R)-1-phenyl-propyl)-amide], 3700 nM.
On to `CC[C@@H](NC(=O)c1cc(C(=O)N2CCCC2C(C)(C)C)n2c1COCC2)c1ccccc1` (stereo partly drawn) [16ex, 6-(2-tert-Butyl-pyrrolidine-1-carbonyl)-3,4-dihydro-1H-pyrrolo[2,1-c][1,4]oxazine-8-carboxylic acid ((R)-1-phenyl-propyl)-amide], for which the IC50 is 180 nM.
Regarding `CC[C@@H](NC(=O)c1cc(C(=O)N2CCC[C@@H]2C(C)O)n2c1COCC2)c1ccccc1` (stereo partly drawn) [16ey, 6-[(R)-2-(1-Hydroxy-ethyl)-pyrrolidine-1-carbonyl]-3,4-dihydro-1H-pyrrolo[2,1-c][1,4]oxazine-8-carboxylic acid ((R)-1-phenyl-propyl)-amide], the IC50 came to 4700 nM.
As for `CC[C@@H](NC(=O)c1cc(C(=O)N2CCC[C@@H]2C(C)OC)n2c1COCC2)c1ccccc1` (stereo partly drawn) [16ez, 6-[(R)-2-(1-Methoxy-ethyl)-pyrrolidine-1-carbonyl]-3,4-dihydro-1H-pyrrolo[2,1-c][1,4]oxazine-8-carboxylic acid ((R)-1-phenyl-propyl)-amide], the IC50 was 500 nM.
Same read-out and setting: next, `CC[C@@H](NC(=O)c1cc(C(=O)N2CCC[C@@H]2C)n2c1COCC2)c1ccc(C(F)(F)F)cc1` [16f, 6-((S)-2-Methyl-pyrrolidine-1-carbonyl)-3,4-dihydro-1H-pyrrolo[2,1-c][1,4]oxazine-8-carboxylic acid [(R)-1-(4-trifluoromethyl-phenyl)-propyl]-amide]: 68 nM.
The same measure, in the same setting: with `CC[C@@H](NC(=O)c1cc(C(=O)N2CCCC2(C)C)n2c1COCC2)c1ccccc1` [16fb, 6-(2,2-Dimethyl-pyrrolidine-1-carbonyl)-3,4-dihydro-1H-pyrrolo[2,1-c][1,4]oxazine-8-carboxylic acid ((R)-1-phenyl-propyl)-amide] the figure was 130 nM; with `CC[C@@H](NC(=O)c1cc(C(=O)N2CC3CC3C2)n2c1COCC2)c1ccccc1` (stereo partly drawn) [16fe, 6-(3-Aza-bicyclo[3.1.0]hexane-3-carbonyl)-3,4-dihydro-1H-pyrrolo[2,1-c][1,4]oxazine-8-carboxylic acid ((R)-1-phenyl-propyl)-amide], 150 nM; with `CCOC(=O)[C@H]1CCCN1C(=O)c1cc(C(=O)N[C@H](CC)c2ccccc2)c2n1CCOC2` [16ff], 540 nM.
On the same count and under the same terms, with `CC[C@@H](NC(=O)c1cc(C(=O)N2CC[C@H](OCC(C)C)C2)n2c1COCC2)c1ccccc1` [16fg, 6-((S)-3-Isobutoxy-pyrrolidine-1-carbonyl)-3,4-dihydro-1H-pyrrolo[2,1-c][1,4]oxazine-8-carboxylic acid ((R)-1-phenyl-propyl)-amide] the figure was 1300 nM.
Take `CC[C@@H](NC(=O)c1cc(C(=O)N2CCC[C@@H]2CNC(C)=O)n2c1COCC2)c1ccccc1` [16fh, 6-[(R)-2-(Acetylamino-methyl)-pyrrolidine-1-carbonyl]-3,4-dihydro-1H-pyrrolo[2,1-c][1,4]oxazine-8-carboxylic acid ((R)-1-phenyl-propyl)-amide]: the IC50 amounted to 5200 nM.
Still for that read-out and setting: next, `CCOC(=O)C[C@H]1CCCN1C(=O)c1cc(C(=O)N[C@H](CC)c2ccccc2)c2n1CCOC2` [16fi, {(R)-1-[8-((R)-1-Phenyl-propylcarbamoyl)-3,4-dihydro-1H-pyrrolo[2,1-c][1,4]oxazine-6-carbonyl]-pyrrolidin-2-yl}-acetic acid ethyl ester]: 130 nM.
`CC[C@@H](NC(=O)c1cc(C(=O)N2CCCC2C(O)c2ccccc2)n2c1COCC2)c1ccccc1` (stereo partly drawn) [16fj, 6-[2-(Hydroxy-phenyl-methyl)-pyrrolidine-1-carbonyl]-3,4-dihydro-1H-pyrrolo[2,1-c][1,4]oxazine-8-carboxylic acid ((R)-1-phenyl-propyl)-amide]: the inhibition at 5 µM (compound concentration 5 μM) was 89%.
For `CC[C@@H](NC(=O)c1cc(C(=O)N2CCC[C@@H]2c2ccccn2)n2c1COCC2)c1ccccc1` [16fk, 6-((R)-2-Pyridin-2-yl-pyrrolidine-1-carbonyl)-3,4-dihydro-1H-pyrrolo[2,1-c][1,4]oxazine-8-carboxylic acid ((R)-1-phenyl-propyl)-amide], the IC50 came to 290 nM.
Same read-out and setting: next, `CC[C@@H](NC(=O)c1cc(C(=O)N2CCC[C@@H]2c2ccc(OC)nc2)n2c1COCC2)c1ccccc1` [16fl, 6-[(R)-2-(6-Methoxy-pyridin-3-yl)-pyrrolidine-1-carbonyl]-3,4-dihydro-1H-pyrrolo[2,1-c][1,4]oxazine-8-carboxylic acid ((R)-1-phenyl-propyl)-amide]: 240 nM; `CC[C@@H](NC(=O)c1cc(C(=O)N2CCC[C@@H]2C#N)n2c1COCC2)c1ccccc1` [16fm, 6-((R)-2-Cyano-pyrrolidine-1-carbonyl)-3,4-dihydro-1H-pyrrolo[2,1-c][1,4]oxazine-8-carboxylic acid ((R)-1-phenyl-propyl)-amide]: 210 nM; `CC[C@@H](NC(=O)c1cc(C(=O)N2CC[C@H](F)C2)n2c1COCC2)c1ccccc1` [16fn, 6-((S)-3-Fluoro-pyrrolidine-1-carbonyl)-3,4-dihydro-1H-pyrrolo[2,1-c][1,4]oxazine-8-carboxylic acid ((R)-1-phenyl-propyl)-amide]: 160 nM.
Still for that read-out and setting: next, `CC[C@@H](NC(=O)c1cc(C(=O)N2CCC[C@@H]2CC(=O)OC(C)C)n2c1COCC2)c1ccccc1` [16fo, {(R)-1-[8-((R)-1-Phenyl-propylcarbamoyl)-3,4-dihydro-1H-pyrrolo[2,1-c][1,4]oxazine-6-carbonyl]-pyrrolidin-2-yl}-acetic acid isopropyl ester]: 230 nM.
On the same count and under the same terms, with `CC[C@@H](NC(=O)c1cc(C(=O)N2CCC[C@@H]2c2cnccn2)n2c1COCC2)c1ccccc1` [16fp, 6-((R)-2-Pyrazin-2-yl-pyrrolidine-1-carbonyl)-3,4-dihydro-1H-pyrrolo[2,1-c][1,4]oxazine-8-carboxylic acid ((R)-1-phenyl-propyl)-amide] the figure was 1900 nM.
For the compound `CC[C@@H](NC(=O)c1cc(C(=O)N2CCN(c3ccccn3)CC2)n2c1COCC2)c1ccccc1` [16fq, 6-(4-Pyridin-2-yl-piperazine-1-carbonyl)-3,4-dihydro-1H-pyrrolo[2,1-c][1,4]oxazine-8-carboxylic acid ((R)-1-phenyl-propyl)-amide], the IC50 came to 1100 nM.
On the same count and under the same terms, next, `CC[C@@H](NC(=O)c1cc(C(=O)N2CCCC2CN2CCOCC2)n2c1COCC2)c1ccccc1` (stereo partly drawn) [16fr, 6-(2-Morpholin-4-ylmethyl-pyrrolidine-1-carbonyl)-3,4-dihydro-1H-pyrrolo[2,1-c][1,4]oxazine-8-carboxylic acid ((R)-1-phenyl-propyl)-amide]: 1300 nM.
Regarding `CC[C@@H](NC(=O)c1cc(C(=O)N2CCN(c3ccccn3)C[C@@H]2C)n2c1COCC2)c1ccccc1` [16fs, 6-((S)-2-Methyl-4-pyridin-2-yl-piperazine-1-carbonyl)-3,4-dihydro-1H-pyrrolo[2,1-c][1,4]oxazine-8-carboxylic acid ((R)-1-phenyl-propyl)-amide], the IC50 came to 670 nM.

What is called IC50 is the concentration that inhibits the measured activity by half. The term inhibition denotes how much of the control response was suppressed. Low values mean little suppression, high ones strong suppression.
